# Assay results taken from patent publication US20240389599A1, “Antimicrobial Material Comprising a Tetraalkylphosphonium Ionic Liquid and Metal Nanoparticles” (University of Windsor, priority 2023, published 2024).
# Columns and labels:
# Format in all cases: cell-based
# S. aureus = assay: resazurin-based MIC/MBC screen of the TAPILs; conditions: resazurin assay
# Description: (§1) The MIC evaluation of the three TAPILs is shown with E. coli (a) and S. aureus (b) as the microorganism under study, using resazurin as an indicator of bacterial viability. The numbers on the right correspond to the TAPILs—i.e. “1” stands for TAPIL-1. The MIC and MBC values (c) are shown for the three TAPILs deployed against E. coli and S. aureus as representative microorganisms.
# (§2) The three TAPILs were screened against E. coli and S. aureus according to standard procedures (FIG. 2). The bacteria were selected as they are the representative strains (gram negative and positive, respectively) used for European Union regulations in the evaluation of disinfectants. A standard resazurin-based assay was employed: A blue well indicates non-viable bacteria, while a pink one indicates bacterial viability. The MIC and the MBC values are summarized.
# E. coli = assay: resazurin-based MIC/MBC screen of the TAPILs
# Description: as §1, §2
# [1] = MIC/MBC of TAPIL-2 monitored upon ambient storage open to the atmosphere; conditions: 3 weeks ambient storage open to the atmosphere
# Description: The presence of one longer alkyl chain on the central phosphorus is believed to be preferred for anti-microbial activity since symmetrical TAPILs with four identical alkyl substituents around the phosphorus atom are likely to interact less strongly with the cell membrane to induce cell death. The MIC/MBC values of TAPIL-2 were monitored over a period of 3 weeks upon ambient storage open to the atmosphere. No change in its antimicrobial activity was detected.
smiles,measurement,setting,value
CCCCCCCCCCCCCC[P+](CCCCCC)(CCCCCC)CCCCCC.[Cl-] [TAPIL-1],antibacterial properties (in words),S. aureus,bacteriostatic properties at intermediate concentrations
same,antibacterial properties (in words),E. coli; resazurin assay,bacteriostatic properties at intermediate concentrations
CCCCCCCC[P+](CCCCCC)(CCCCCC)CCCCCC.[Cl-] [TAPIL-2],Minimum Bactericidal Concentration (MBC),E. coli,< 65 µg/mL
same,change in antimicrobial activity (MIC/MBC values),[1],No change
CCCCCCCCCCCCCC[P+](CCCCCC)(CCCCCC)CCCCCC.O=S(=O)([N-]S(=O)(=O)C(F)(F)F)C(F)(F)F [TAPIL-3],concentration up to which no anti-bacterial effects are shown (MIC/MBC),S. aureus,> 2000 µg/mL
same,concentration up to which no anti-bacterial effects are shown (MIC/MBC),E. coli; resazurin assay,> 2000 µg/mL
